Results from patent publication US20190358181A1, “METHODS FOR AUTISM SPECTRUM DISORDER PHARMACOTHERAPY” (priority 2017, published 2019).

Tested on: 610 metabolites from 63 biochemical pathways
Assay: Targeted broad-spectrum plasma metabolomic analysis (LC-MS/MS), paired pre-infusion vs post-infusion (2-days and 6-weeks)
Assay type: in vivo, human
Procedure: Targeted, broad-spectrum, plasma metabolomic analysis of 610 metabolites from 63 biochemical pathways was performed by high performance liquid chromatography and tandem mass spectrometry (LC-MS/MS) on the samples collected from patients in Example 1. Venous blood was collected between the hours of 8 am and 5 pm, at least 3 hours after the last meal, into lithium-heparin vacutainer tubes (BD #367884). Plasma was separated by centrifugation at 900 g×10 minutes at room temperature within one hour of collection. The resulting fresh lithium-heparin plasma was transferred to labeled 1.2 ml or 2.0 ml externally threaded cryotubes with a minimum headspace air gap for storage at −80° C. for analysis. Samples were analyzed on an AB SCIEX QTRAP 5500 triple quadrupole mass spectrometer equipped with a Turbo V electrospray ionization (ESI) source, Shimadzu LC-20A UHPLC system, and a PAL CTC autosampler. Typically, 90 μl of plasma was thawed on ice and transferred to a 1.7 ml Eppendorf tube. Five (5.0) μl of a cocktail containing 25-35 commercial stable isotope internal standards, and 5.0 μl of 57 stable isotope internal standards that were custom-synthesized in E. coli NCM3722, Caenorhabditis elegans N2, and Komagataella phaffii (ATCC 76273; formerly known as Pichia pastoris) by metabolic labeling with 13C-glucose and 13C-bicarbonate, were added, mixed, and incubated for 10 min at 20° C. to permit small molecules and vitamins in the internal standards to associate with plasma binding proteins. Macromolecules (protein, DNA, RNA, glycans, etc.) were precipitated by extraction with 4 volumes (400 μl) of cold (−20° C.), acetonitrile:methanol (50:50) (LCMS grade, Cat #LC015-2.5 and GC230-4, Burdick & Jackson, Honeywell), vortexed vigorously, and incubated on crushed ice for 10 min, then removed by centrifugation at 16,000 g×10 min at 4° C. The supernatants containing the extracted metabolites and internal standards in the resulting 40:40:20 solvent mix of acetonitrile:methanol:water were transferred to labeled cryotubes and stored at −80° C. for LCMS/MS analysis.
LC-MS/MS analysis was performed by scheduled multiple reaction monitoring (sMRM) under Analyst v1.6.2 software control in both negative and positive mode with rapid polarity switching (50 ms). Nitrogen was used for curtain gas (set to 30), collision gas (set to high), ion source gas 1 and 2 (set to 35). The source temperature was 500° C. Spray voltage was set to −4500 V in negative mode and 5500 V in positive mode. The values for Q1 and Q3 mass-to-charge ratios (m/z), declustering potential (DP), entrance potential (EP), collision energy (CE), and collision cell exit potential (CXP) were determined and optimized for each MRM for each metabolite. Ten microliters of extract was injected by PAL CTC autosampler via a 10 μl stainless steel loop into a 250 mm×2.0 mm, 4 μm polymer based NH2 HPLC column (Asahipak NH2P-40 2E, Showa Denko America, Inc., NY) held at 25° C. for chromatographic separation. The mobile phase was solvent A: 95% water with 20 mM (NH4)2CO3 (Sigma, Fluka Cat #74415-250G-F), 5% acetonitrile, and 38 mM NH4OH (Sigma, Fluka Cat #17837-100ML), final pH 9.75; solvent B: 100% acetonitrile. Separation was achieved using the following gradient: 0-3.5 min: 95% B, 3.6-8 min: 85% B, 8.1-13 min: 75% B, 13.5-35 min: 0% B, 36-46 min: 95% B, 46.1 min: end. The flow rate was 200 μl/min. Pump pressures ranged from 920-2600 psi over the course of the gradient. All the samples were kept at 4° C. during analysis. The chromatographic peaks were identified using MultiQuant (v3.0, Sciex), confirmed by manual inspection, and the peak areas integrated. […]

[1] = S-Adenosylhomocysteine, plasma, 6-weeks
[2] = SAM, SAH, Methionine, Cysteine, Glutathione, 2-days
[3] = SAM, SAH, Methionine, Cysteine, Glutathione, 6-weeks
[4] = SM(d18:1/18:2), plasma, 6-weeks
[5] = SM(d18:1/26:0 OH), plasma, 6-weeks
[6] = Sphingomyelin Metabolism, 2-days
[7] = Sphingomyelin Metabolism, 6-weeks
[8] = Subtotal, all pathways, 6-weeks
[9] = Subtotals, all pathways, 2-days
[10] = Taurine, Hypotaurine Metabolism, 2-days
[11] = Tryptophan, Kynurenine, Serotonin, Melatonin, 6-weeks
[12] = Tryptophan, Kynurenine, Serotonin, 2-days
[13] = Tyrosine and Phenylalanine Metabolism, 2-days
[14] = Tyrosine and Phenylalanine Metabolism, 6-weeks
[15] = Vitamin C (Ascorbate) Metabolism, 6-weeks
[16] = Vitamin D (Calciferol) Metabolism, 2-days
[17] = cis-aconitic acid, plasma, 6-weeks
[18] = lsovalerylglycine, plasma, 6-weeks
[19] = p-Hydroxyphenylacetic acid, plasma, 6-weeks
[20] = plasma, 2-days after infusion vs pre-infusion, Amino Acid Metabolism (not otherwise covered)
[21] = plasma, 2-days after infusion vs pre-infusion, Amino-Sugar, Galactose, & Non-Glucose Metabolism
[22] = plasma, 2-days after infusion vs pre-infusion, Bile Salt Metabolism
[23] = plasma, 2-days after infusion vs pre-infusion, Bioamines and Neurotransmitter Metabolism
[24] = plasma, 2-days after infusion vs pre-infusion, Branch Chain Amino Acid Metabolism
[25] = plasma, 2-days after infusion vs pre-infusion, Cardiolipin Metabolism
[26] = plasma, 2-days after infusion vs pre-infusion, Ceramide Metabolism

## Cc1ccc(C(=O)Nc2ccc(S(=O)(=O)O)c3cc(S(=O)(=O)O)cc(S(=O)(=O)O)c23)cc1NC(=O)c1cccc(NC(=O)Nc2cccc(C(=O)Nc3cc(C(=O)Nc4ccc(S(=O)(=O)O)c5cc(S(=O)(=O)O)cc(S(=O)(=O)O)c45)ccc3C)c2)c1 [Suramin, suramin]
Purine Metabolism, 2-days
  Fraction of Impact (VIP Score) Explained (% of 119.7): 15%
  Impact (Sum VIP Score): 17.6
  Increased: 4
  Observed Hits in the Top 61 Metabolites: 9
Purine Metabolism, 6-weeks
  Decreased: 2
  Fold Enrichment (Obs/Exp): 1.7
  Fraction of Impact (VIP Score) Explained (% of 94.6): 11%
  Impact (Sum VIP Score): 10.2
  Increased: 3
  Observed Hits in the Top 48 Metabolites: 5
Purine, plasma, 6-weeks
  Linear Ratio: 1.307
  VIP Score: 1.980
  Z Abs: 1.650
  Z Score: 1.650
Pyrimidine Metabolism, 2-days
  Decreased: 1
  Fold Enrichment (Obs/Exp): 1.6
  Fraction of Impact (VIP Score) Explained (% of 119.7): 4%
  Impact (Sum VIP Score): 4.3
  Increased: 1
  Observed Hits in the Top 61 Metabolites: 2
Pyrimidine Metabolism, 6-weeks
  Decreased: 0
  Fold Enrichment (Obs/Exp): 2.0
  Fraction of Impact (VIP Score) Explained (% of 94.6): 4%
  Impact (Sum VIP Score): 4.2
  Increased: 2
  Observed Hits in the Top 48 Metabolites: 2
[1]
  Linear Ratio: 1.417
  VIP Score: 1.894
  Z Abs: 0.971
  Z Score: 0.971
[2]
  Decreased: 1
  Fold Enrichment (Obs/Exp): 1.4
  Fraction of Impact (VIP Score) Explained (% of 119.7): 5%
  Impact (Sum VIP Score): 5.6
  Increased: 2
  Observed Hits in the Top 61 Metabolites: 3
[3]
  Decreased: 0
  Fold Enrichment (Obs/Exp): 3.0
  Fraction of Impact (VIP Score) Explained (% of 94.6): 10%
  Impact (Sum VIP Score): 9.5
  Increased: 5
  Observed Hits in the Top 48 Metabolites: 5
[4]
  Linear Ratio: 1.424
  VIP Score: 1.508
  Z Abs: 0.750
  Z Score: 0.750
[5]
  Linear Ratio: 1.671
  VIP Score: 2.622
  Z Abs: 2.002
  Z Score: 2.002
[6]
  Decreased: 2
  Fold Enrichment (Obs/Exp): 0.4
  Fraction of Impact (VIP Score) Explained (% of 119.7): 3%
  Impact (Sum VIP Score): 3.6
  Increased: 0
  Observed Hits in the Top 61 Metabolites: 2
[7]
  Decreased: 0
  Fold Enrichment (Obs/Exp): 0.5
  Fraction of Impact (VIP Score) Explained (% of 94.6): 4%
  Impact (Sum VIP Score): 4.1
  Increased: 2
  Observed Hits in the Top 48 Metabolites: 2
[8]
  Decreased: 6
  Increased: 42
[9]
  Decreased: 23
  Increased: 38
[10]
  Decreased: 1
  Fold Enrichment (Obs/Exp): 3.5
  Fraction of Impact (VIP Score) Explained (% of 119.7): 2%
  Impact (Sum VIP Score): 2.0
  Increased: 0
  Observed Hits in the Top 61 Metabolites: 1
Tiglylglycine, plasma, 6-weeks
  Linear Ratio: 1.302
  VIP Score: 1.878
  Z Abs: 1.310
  Z Score: 1.310
[11]
  Decreased: 0
  Fold Enrichment (Obs/Exp): 1.5
  Fraction of Impact (VIP Score) Explained (% of 94.6): 2%
  Impact (Sum VIP Score): 2.1
  Increased: 1
  Observed Hits in the Top 48 Metabolites: 1
[12]
  Decreased: 0
  Fold Enrichment (Obs/Exp): 1.2
  Fraction of Impact (VIP Score) Explained (% of 119.7): 1%
  Impact (Sum VIP Score): 1.6
  Increased: 1
  Observed Hits in the Top 61 Metabolites: 1
[13]
  Decreased: 0
  Fold Enrichment (Obs/Exp): 2.4
  Fraction of Impact (VIP Score) Explained (% of 119.7): 2%
  Impact (Sum VIP Score): 1.8
  Increased: 1
  Observed Hits in the Top 61 Metabolites: 1
[14]
  Decreased: 0
  Fold Enrichment (Obs/Exp): 6.0
  Fraction of Impact (VIP Score) Explained (% of 94.6): 4%
  Impact (Sum VIP Score): 3.7
  Increased: 2
  Observed Hits in the Top 48 Metabolites: 2
Uridine, plasma, 6-weeks
  Linear Ratio: 1.244
  VIP Score: 1.764
  Z Abs: 0.928
  Z Score: 0.928
[15]
  Decreased: 0
  Fold Enrichment (Obs/Exp): 4.5
  Fraction of Impact (VIP Score) Explained (% of 94.6): 2%
  Impact (Sum VIP Score): 2.0
  Increased: 1
  Observed Hits in the Top 48 Metabolites: 1
[16]
  Decreased: 1
  Fold Enrichment (Obs/Exp): 2.4
  Fraction of Impact (VIP Score) Explained (% of 119.7): 3%
  Impact (Sum VIP Score): 3.1
  Increased: 0
  Observed Hits in the Top 61 Metabolites: 1
[17]
  Linear Ratio: 1.278
  VIP Score: 1.852
  Z Abs: 0.928
  Z Score: 0.928
Day 2
  metabolites significantly changed by suramin (total): 61
[18]
  Linear Ratio: 2.027
  VIP Score: 1.888
  Z Abs: 0.901
  Z Score: 0.901
[19]
  Linear Ratio: 1.306
  VIP Score: 2.203
  Z Abs: 2.226
  Z Score: 2.226
plasma
  1-Methyl-adenine (1-MA): increased
  AICAR: increased
  cAMP: decreased
  dGDP: decreased
[20]
  Linear Ratio, Alanine: 1.193
  VIP Score, Alanine: 1.776
  Z Abs, Alanine: 1.066
  Z Score, Alanine: 1.066
[21]
  Linear Ratio, Myoinositol: 1.286
  VIP Score, Myoinositol: 1.645
  Z Abs, Myoinositol: 0.785
  Z Score, Myoinositol: 0.785
[22]
  Linear Ratio, Chenodeoxyglycocholic acid: 2.787
  Linear Ratio, Glycocholic acid: 2.344
  Linear Ratio, Taurocholic acid: 2.183
  Linear Ratio, Taurodeoxycholic acid Pool: 2.614
  VIP Score, Chenodeoxyglycocholic acid: 3.171
  VIP Score, Glycocholic acid: 3.090
  VIP Score, Taurocholic acid: 2.615
  VIP Score, Taurodeoxycholic acid Pool: 3.048
  Z Abs, Chenodeoxyglycocholic acid: 1.610
  Z Abs, Glycocholic acid: 2.020
  Z Abs, Taurocholic acid: 1.102
  Z Abs, Taurodeoxycholic acid Pool: 1.326
  Z Score, Chenodeoxyglycocholic acid: 1.610
  Z Score, Glycocholic acid: 2.020
  Z Score, Taurocholic acid: 1.102
  Z Score, Taurodeoxycholic acid Pool: 1.326
[23]
  Linear Ratio, Dopamine: 0.877
  Linear Ratio, L-Glutamic acid: 0.797
  VIP Score, Dopamine: 1.653
  VIP Score, L-Glutamic acid: 1.641
  Z Abs, Dopamine: 0.642
  Z Abs, L-Glutamic acid: 0.619
  Z Score, Dopamine: −0.642
  Z Score, L-Glutamic acid: −0.619
[24]
  Linear Ratio, Isovalerylglycine: 1.951
  Linear Ratio, L-Isoleucine: 1.094
  Linear Ratio, L-Valine: 1.165
  Linear Ratio, Tiglylglycine: 1.141
  VIP Score, Isovalerylglycine: 1.783
  VIP Score, L-Isoleucine: 2.136
  VIP Score, L-Valine: 1.808
  VIP Score, Tiglylglycine: 1.562
  Z Abs, Isovalerylglycine: 0.852
  Z Abs, L-Isoleucine: 0.815
  Z Abs, L-Valine: 0.749
  Z Abs, Tiglylglycine: 0.657
  Z Score, Isovalerylglycine: 0.852
  Z Score, L-Isoleucine: 0.815
  Z Score, L-Valine: 0.749
  Z Score, Tiglylglycine: 0.657
[25]
  Linear Ratio, CL(18:2/18:2/18:2/18:1): 1.102
  Linear Ratio, CL(18:2/18:2/18:2/18:2): 1.181
[26]
  Linear Ratio, Ceramide(d18:1/18:2): 1.337
  VIP Score, Ceramide(d18:1/18:2): 1.521
